Results: ChEMBL document CHEMBL1136440, “Design and synthesis of novel RXR-selective modulators with improved pharmacological profile” (Bioorg Med Chem Lett, 2003)
Where “and” joins values, the source holds several entries; their conditions need not be identical. Identical values can stand only once.

Assays:
[1] = target: T1, Peroxisome proliferator-activated receptor gamma (Homo sapiens, UniProt P37231)
T1 sequence (P37231 whole entry): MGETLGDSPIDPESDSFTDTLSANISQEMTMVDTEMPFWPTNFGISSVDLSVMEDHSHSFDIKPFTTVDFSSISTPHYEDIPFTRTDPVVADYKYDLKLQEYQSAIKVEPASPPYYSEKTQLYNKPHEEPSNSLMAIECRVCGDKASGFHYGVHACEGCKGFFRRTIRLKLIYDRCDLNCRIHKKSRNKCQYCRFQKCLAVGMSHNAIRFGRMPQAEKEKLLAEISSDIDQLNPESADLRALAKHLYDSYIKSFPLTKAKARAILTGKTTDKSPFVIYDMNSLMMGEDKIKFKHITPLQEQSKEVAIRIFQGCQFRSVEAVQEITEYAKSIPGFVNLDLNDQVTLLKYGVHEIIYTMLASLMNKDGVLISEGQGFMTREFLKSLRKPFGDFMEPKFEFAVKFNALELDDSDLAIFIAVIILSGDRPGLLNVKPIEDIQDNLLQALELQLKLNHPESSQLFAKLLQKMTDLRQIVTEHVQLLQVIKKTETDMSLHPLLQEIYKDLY
Description: In vitro agonistic activity against PPAR gamma along with 100 nM BRL-49653

[2] = target: T1, Peroxisome proliferator-activated receptor gamma; remark: listed apart in the source
Description: In vitro agonist efficacy against PPAR gamma along with 100 nM BRL-49653

[3] = target: T2, Retinoic acid receptor alpha (Homo sapiens) (UniProt P10276); experiment: Agonist synergy against RAR alpha was tested along with 3 nM TTNPB; format: functional; conditions: Cercopithecidae
T2 sequence (whole entry): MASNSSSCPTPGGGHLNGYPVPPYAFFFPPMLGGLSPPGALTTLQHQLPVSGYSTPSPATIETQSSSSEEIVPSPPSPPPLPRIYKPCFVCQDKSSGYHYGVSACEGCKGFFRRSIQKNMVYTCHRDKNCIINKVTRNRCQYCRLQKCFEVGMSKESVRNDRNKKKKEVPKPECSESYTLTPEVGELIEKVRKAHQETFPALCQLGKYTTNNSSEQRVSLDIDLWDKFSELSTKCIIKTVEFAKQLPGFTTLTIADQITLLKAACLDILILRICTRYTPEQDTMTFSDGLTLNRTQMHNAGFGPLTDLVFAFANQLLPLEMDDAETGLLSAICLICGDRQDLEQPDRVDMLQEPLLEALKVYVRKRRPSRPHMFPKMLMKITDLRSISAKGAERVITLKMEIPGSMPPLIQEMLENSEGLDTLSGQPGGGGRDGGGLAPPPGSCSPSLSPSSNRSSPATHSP

[4] = target: T3, Retinoic acid receptor gamma (Homo sapiens, UniProt P13631); experiment: Binding affinity against RAR gamma receptor using [3H]ATRA as radioligand in CV-1 cells; format: cell-based, Cercopithecidae
T3 sequence (P13631 whole entry): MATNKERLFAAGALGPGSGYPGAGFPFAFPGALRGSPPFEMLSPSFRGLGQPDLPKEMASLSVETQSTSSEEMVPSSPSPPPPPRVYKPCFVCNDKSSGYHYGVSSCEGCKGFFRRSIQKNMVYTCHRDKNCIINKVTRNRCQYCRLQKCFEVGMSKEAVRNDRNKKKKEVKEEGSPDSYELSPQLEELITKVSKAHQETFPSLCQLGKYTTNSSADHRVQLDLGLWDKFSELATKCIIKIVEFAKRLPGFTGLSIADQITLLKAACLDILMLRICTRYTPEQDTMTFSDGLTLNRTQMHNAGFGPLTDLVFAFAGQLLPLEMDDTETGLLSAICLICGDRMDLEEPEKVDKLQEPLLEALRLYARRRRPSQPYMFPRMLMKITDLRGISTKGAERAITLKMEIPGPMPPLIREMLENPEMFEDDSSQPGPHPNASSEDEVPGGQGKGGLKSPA

[5] = target: T4, Retinoic acid receptor RXR-alpha (Homo sapiens, UniProt P19793); experiment: In vitro antagonist activity against RXR alpha in CV-1 cells; format: functional, cell-based, Cercopithecidae
T4 sequence (P19793 whole entry): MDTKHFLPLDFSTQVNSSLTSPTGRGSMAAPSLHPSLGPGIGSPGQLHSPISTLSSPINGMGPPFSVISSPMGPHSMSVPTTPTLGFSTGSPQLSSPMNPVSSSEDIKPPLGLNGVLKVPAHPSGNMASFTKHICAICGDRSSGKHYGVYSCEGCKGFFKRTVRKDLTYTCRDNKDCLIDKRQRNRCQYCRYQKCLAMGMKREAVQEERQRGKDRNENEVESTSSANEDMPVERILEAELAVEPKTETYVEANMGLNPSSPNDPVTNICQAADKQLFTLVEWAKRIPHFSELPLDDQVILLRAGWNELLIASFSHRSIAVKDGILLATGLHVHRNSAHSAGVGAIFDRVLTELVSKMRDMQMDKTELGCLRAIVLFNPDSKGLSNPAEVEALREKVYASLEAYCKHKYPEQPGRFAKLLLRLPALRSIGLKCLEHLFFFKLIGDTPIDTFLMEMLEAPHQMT

[6] = target: T5, Retinoic acid receptor beta (Homo sapiens, UniProt P10826); experiment: Binding affinity against RAR beta receptor using [3H]ATRA as radioligand in CV-1 cells; format: cell-based, Cercopithecidae
T5 sequence (P10826 whole entry): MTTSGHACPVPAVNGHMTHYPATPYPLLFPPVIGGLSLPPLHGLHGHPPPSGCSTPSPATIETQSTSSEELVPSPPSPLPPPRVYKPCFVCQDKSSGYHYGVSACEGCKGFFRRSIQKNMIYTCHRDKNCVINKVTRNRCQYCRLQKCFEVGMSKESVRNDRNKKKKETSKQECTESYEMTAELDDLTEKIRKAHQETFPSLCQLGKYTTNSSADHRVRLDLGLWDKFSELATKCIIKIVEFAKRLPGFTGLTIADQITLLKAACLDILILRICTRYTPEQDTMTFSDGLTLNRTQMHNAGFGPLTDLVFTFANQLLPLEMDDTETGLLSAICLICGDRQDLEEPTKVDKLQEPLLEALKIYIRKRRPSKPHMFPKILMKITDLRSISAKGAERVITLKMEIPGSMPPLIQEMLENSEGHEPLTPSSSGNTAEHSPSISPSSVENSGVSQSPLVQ

[7] = target: T4, Retinoic acid receptor RXR-alpha; experiment: biochemical
Description: Binding affinity against RXR alpha receptor using [3H]9-cis-RA as radioligand in CV-1 cells

[8] = target: T6, Retinoic acid receptor RXR-gamma (Homo sapiens, UniProt P48443); experiment: Binding affinity against RXR gamma receptor using [3H]9-cis-RA as radioligand in CV-1 cells; format: cell-based, Cercopithecidae
T6 sequence (P48443 whole entry): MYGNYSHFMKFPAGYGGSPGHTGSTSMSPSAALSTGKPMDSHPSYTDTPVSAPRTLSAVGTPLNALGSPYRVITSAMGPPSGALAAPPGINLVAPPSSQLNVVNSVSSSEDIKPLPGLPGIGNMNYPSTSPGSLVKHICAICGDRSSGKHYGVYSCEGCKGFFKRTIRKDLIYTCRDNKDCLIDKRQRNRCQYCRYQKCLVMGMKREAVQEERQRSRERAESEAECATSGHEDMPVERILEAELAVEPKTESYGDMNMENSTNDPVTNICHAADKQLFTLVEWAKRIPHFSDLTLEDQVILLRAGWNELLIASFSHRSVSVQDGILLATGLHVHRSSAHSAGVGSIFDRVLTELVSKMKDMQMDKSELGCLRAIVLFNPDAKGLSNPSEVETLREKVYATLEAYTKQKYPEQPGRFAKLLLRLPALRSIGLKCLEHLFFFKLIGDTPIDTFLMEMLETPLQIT

[9] = target: T7, Retinoic acid receptor RXR-beta (Homo sapiens, UniProt P28702); experiment: Displacement of [3H]9-cis-RA from RXR beta receptor in CV-1 cells; format: cell-based, Cercopithecidae
T7 sequence (P28702 whole entry): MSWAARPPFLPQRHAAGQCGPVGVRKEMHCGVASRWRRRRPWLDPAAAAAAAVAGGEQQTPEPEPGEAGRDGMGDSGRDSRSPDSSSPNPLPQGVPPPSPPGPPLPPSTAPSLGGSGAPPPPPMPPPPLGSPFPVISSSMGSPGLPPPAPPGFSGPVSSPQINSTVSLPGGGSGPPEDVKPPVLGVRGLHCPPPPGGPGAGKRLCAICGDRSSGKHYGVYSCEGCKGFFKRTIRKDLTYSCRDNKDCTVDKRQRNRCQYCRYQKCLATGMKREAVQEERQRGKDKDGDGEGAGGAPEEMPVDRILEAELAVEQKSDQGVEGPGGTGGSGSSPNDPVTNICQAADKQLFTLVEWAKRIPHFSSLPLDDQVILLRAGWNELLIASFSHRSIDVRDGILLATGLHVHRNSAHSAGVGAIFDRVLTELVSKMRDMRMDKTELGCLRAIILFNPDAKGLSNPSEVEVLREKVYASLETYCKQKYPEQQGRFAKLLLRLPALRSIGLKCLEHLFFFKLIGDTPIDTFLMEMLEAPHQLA

[10] = target: T8, Retinoic acid receptor alpha (Homo sapiens, UniProt P10276); experiment: Binding affinity against RAR alpha receptor using [3H]ATRA as radioligand in CV-1 cells; format: cell-based, Cercopithecidae
T8 sequence (P10276 whole entry): T2 sequence (whole entry)

[11] = Tmax value in IRC mice; format: ADME, organism-based; conditions: mouse, in vivo
[12] = Area under curve at 0-8 hr in IRC mice after peroral administration; format: ADME, organism-based; set-up: time < 8 hr, route oral; conditions: mouse, in vivo, po
[13] = Cmax value in IRC mice; format: ADME, organism-based; conditions: mouse, in vivo

SMILES	EC50 [1] [µM]	EC50 [2] [µM]	Synergy [3] [nM]	Ki [4] [µM]	IC50 [5] [µM]	Ki [6] [µM]	Ki [7] [µM]	Ki [8] [µM]	Ki [9] [µM]	Ki [10] [µM]	Tmax [11] [h]	AUC(0-t) at 8 h [12] [µg·h/mL]	Cmax [13]
CC(/C=C/[C@@H]1C[C@]1(C)c1ccc2c(c1)C(C)(C)CCC2(C)C)=C\C(=O)O [IRX-4204]	0.0086	0.054	1.9	–	–	–	–	–	–	–	–	–	–
C/C(=C/C=C/C(C)=C/C(=O)O)c1cc(-c2ccc(F)cc2)cc(C(C)C)c1OCC(F)F	0.0013	0.032	1.1	> 10	0.0022	2.11	0.0008	0.0056	0.0039	4.55	–	–	–
C/C(=C/C=C/C(C)=C/C(=O)O)c1cc(-c2cccs2)cc(C(C)C)c1OCC(F)F	0.0047	0.015	1.4	> 10	0.0019	2.11	0.0008	0.0056	0.0039	4.55	–	–	–
Cc1cc2c(cc1C1(c3ccc(C(=O)O)cn3)CC1)C(C)(C)CCC2(C)C	–	–	6.9	–	–	–	–	0.012	0.075	–	–	–	–
C/C(=C/C=C/C(C)=C/C(=O)O)c1cc(C(C)(C)C)cc(C(C)(C)C)c1OCC(F)F	–	–	–	> 9.51	–	9.51	–	0.084	0.004	0.054	1	3.8	760 ng/mL and 1.81 µM
CCC(C)(C)c1cc(\C(C)=C(F)/C=C/C(C)=C/C(=O)O)c(OCC(F)F)c(C(C)(C)CC)c1	0.0027	0.051	1.5	> 10	0.0137	5.33	0.0287	0.0403	0.0052	6.59	–	–	–

Continued by falling Ki [8], values first:

EC50 [1] [µM]	EC50 [2] [µM]	Synergy [3] [nM]	Ki [4] [µM]	IC50 [5] [µM]	Ki [6] [µM]	Ki [7] [µM]	Ki [8] [µM]	Ki [9] [µM]	Ki [10] [µM]	Tmax [11] [h]	AUC(0-t) at 8 h [12] [µg·h/mL]	Cmax [13]	SMILES
0.0074	0.071	1.2	> 10	0.004	2.27	0.0214	0.0457	0.0082	2.75	–	–	–	CCCCOc1c(\C(C)=C/C=C/C(C)=C/C(=O)O)cc(C(F)(F)C(F)(F)F)cc1C(C)C
0.0041	0.047	1.5	> 10	0.0047	4.62	0.0044	0.0278	0.0244	3.73	–	–	–	CCCCOc1c(\C(C)=C(F)/C=C/C(C)=C/C(=O)O)cc(C(C)C)cc1C(C)C
0.0027	0.059	1.4	> 1	0.0051	1.98	0.0256	0.0276	0.0172	2.5	–	–	–	CCCOc1c(\C(C)=C/C=C/C(C)=C/C(=O)O)cc(C(F)(F)C(F)(F)F)cc1C(C)C
0.0163	0.078	1	> 10	0.0579	2.61	0.0061	0.0225	0.0123	4.66	–	–	–	C/C(=C/C=C/C(C)=C/C(=O)O)c1cc(C(C)C)cc(-c2ccccc2)c1OCC(F)F
0.0122	0.03	1.5	> 10	0.0072	6.01	0.0041	0.0124	0.0155	4.66	–	–	–	CC(/C=C/C(F)=C(/C)c1cc(C(C)(C)C)cc(C(C)(C)C)c1OCC(F)(F)F)=C\C(=O)O
0.0008	0.036	1.6	> 10	0.0039	3.6	0.001	0.0029	0.0074	> 10	–	–	–	C/C(=C/C=C/C(C)=C/C(=O)O)c1cc(-c2cccc(F)c2)cc(C(C)C)c1OCC(F)F
0.0027	0.04	0.8	> 10	0.0046	1.96	0.0026	0.0028	0.0024	> 10	–	–	–	C/C(=C/C=C/C(C)=C/C(=O)O)c1cc(-c2cc(F)cc(F)c2)cc(C(C)C)c1OCC(F)F
